Data published in patent publication US20040192738A1, “2-(Butyl-1-sulfonylamino)-N-[1(R)-(6-methoxypyridin-3-yl)propyl] benzamide, its use as a medicament, and pharmaceutical preparations comprising it” (Aventis Pharma Deutschland GmbH, priority 2003, published 2004).
Where “and” joins values, the source holds several entries; their conditions need not be identical. Identical values can stand only once.

Columns and labels:
[1] = system: left atrium of the anesthetized pig; assay: Refractory period and left-atrial vulnerability in the anesthetized pig; assay type: in vivo; settings: for % inhibition of the arrhythmias: arrhythmias induced by premature extra-stimulus (S2) in the left atrium, 3 mg/kg; for % inhibition of the arrhythmias / % increase in the refractory period: mean value; for % increase in the refractory period: left atrium, 10 minutes after injection, mean of three rates (150, 200 and 250/min); for antiarrhythmic action: model on the anesthetized pig
Procedure: Investigation of the Refractory Period and the Left-Atrial Vulnerability in the Pig
In the course of this, the refractory period of the left atrium was determined and the antiarrhythmic activity was recorded as described in the literature (Knobloch et al. 2002. Naunyn-Schmiedberg's Arch. Pharmacol. 366; 482-487). The anti-arrhythmic action relates here to the inhibition of the occurrence of episodes of arrhythmias which are induced by a prematurely placed extra-stimulus (S2) in the left atrium (=left-atrial vulnerability).
The refractory period values are stated in percent of the basal values 10 minutes after injection. Mean values for the refractory periods are shown from three rates (150, 200 and 250/min).
By repeated measurement after substance administration, the duration of action of a substance on the refractory period can be determined in this experimental procedure. The R enantiomer was infused intravenously over the course of 100 minutes in a dose of 1 mg/kg and the pharmacological action was determined over the course of 280 minutes.

[2] = Effect on QTc interval and inotropic or hemodynamic side effects; settings: in vivo
[3] = anesthetized pig, bolus 3 mg/kg

Compound	% inhibition of the arrhythmias [1, 3]	% increase in the refractory period [1, 3] [%]	antiarrhythmic action ([1]; result in words)	melting point [°C]	duration of action on the left-atrial refractory period after ending the infusion ([1]; anesthetized pig, 1 mg/kg intravenous infusion over 100 minutes, observed over 280 minutes, FIG. 1) [min]	% inhibition of the arrhythmias ([1]; anesthetized pig, bolus 3 mg/kg, listed as R enantiomer) [%]	prolongation of the refractory period (comparison of enantiomers) ([1]; anesthetized pig, bolus 3 mg/kg, result in words)	effect on the QTc interval [2]	negative inotropic or hemodynamic side effects [2]
CCCCS(=O)(=O)Nc1ccccc1C(=O)N[C@@H](CC)c1ccc(OC)nc1 [S enantiomer, 2-(butyl-1-sulfonylamino)-N-[1(S)-(6-methoxypyridin-3-yl)propyl]benzamide]	27% and 27.3%	8.8	more weakly active						
CCCCS(=O)(=O)Nc1ccccc1C(=O)N[C@H](CC)c1ccc(OC)nc1 [formula I, 2-(butyl-1-sulfonylamino)-N-[1(R)-(6-methoxypyridin-3-yl)propyl]benzamide]		19	excellent	97	≥ 180	73.9	markedly greater prolongation of the refractory period than the S enantiomer	no effect	no negative inotropic or hemodynamic side effects
